Laboratory results: PMC7497180 (Chembiochem, 2020)
“Also recorded” adds a separate entry of the source.

Assays:
[1] = system: THP1^wt cells; assay: CD86-based cell assay; conditions: 72 h, read-out: THP1^wt CD86^+ EC50
[2] = system: THP1‐NTR^+ cells; assay: CD86-based cell assay; conditions: for EC50: 72 h, read-out: THP1‐NTR^+ CD86^+ EC50; for Selectivity window THP1^wt / THP1‐NTR^+: CD86 EC50 ratio
[3] = system: THP1^wt cells; assay: MTS cell viability assay, non-transfected cells; assay type: cell-based
[4] = system: THP1‐NTR^+ cells; assay: MTS cell viability assay, NTR-expressing cells; assay type: cell-based
[5] = system: THP1^wt cells; assay: Colony forming unit
[6] = system: THP1‐NTR^+ cells; assay: Colony forming unit; assay type: cell-based; conditions: for EC50: read-out: THP1‐NTR^+ CFU EC50; for Selectivity window THP1^wt / THP1‐NTR^+: CFU EC50 ratio
[7] = target: LSD1 (Homo sapiens, UniProt O60341); conditions: cited from earlier work
[8] = system: THP1^wt cells; assay: Luminescent measurement of NTR activity in cells, non-transfected; assay type: cell-based; conditions: 25 μM, 60 min
[9] = system: THP1‐NTR^+ cells; assay: Luminescent measurement of NTR activity in cells, NTR-expressing; assay type: cell-based; conditions: 25 μM, 60 min
[10] = system: recombinant NTR; assay: Luminescent probe activation by recombinant NTR in vitro; assay type: biochemical, E. coli; conditions: low NTR concentrations (18–30 nM)
[11] = target: T1, nitroreductase NfsB (NTR) (Escherichia coli, UniProt P38489); assay type: biochemical, E. coli
T1 sequence (P38489 1-217): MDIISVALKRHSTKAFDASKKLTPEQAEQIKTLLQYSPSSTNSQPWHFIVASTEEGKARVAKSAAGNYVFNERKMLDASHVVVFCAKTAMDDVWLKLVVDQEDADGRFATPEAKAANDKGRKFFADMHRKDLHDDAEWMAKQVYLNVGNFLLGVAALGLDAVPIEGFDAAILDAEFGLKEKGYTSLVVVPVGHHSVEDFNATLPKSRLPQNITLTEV

[12] = system: mixtures of the cell lines THP1^wt and THP1‐NTR^+; assay: Bystander effect in the CFU assay; assay type: cell-based; conditions: at 1.0 μM
[13] = 240 h, read-out: THP1^wt CFU EC50
[14] = read-out: THP1^wt CFU EC50, 10 days

EC50 ([1]; Homo sapiens)	EC50 ([2]; Homo sapiens)	EC50 [5, 13]	EC50 ([6]; 240 h)	EC50 ([1]; FACS)	EC50 [5, 14]	EC50 ([6]; 10 days)	Compound	cytotoxicity in THP1^wt (in words) [3]	cytotoxicity in THP1‐NTR^+ (in words) [4]	Selectivity window THP1^wt / THP1‐NTR^+ [2]	Selectivity window THP1^wt / THP1‐NTR^+ [6]	probe conversion in nontransfected THP1^wt cells (in words) [8]	probe conversion in NTR-expressing THP1 cells (in words) [9]	further results
3 ± 0.3 nM	4.1 ± 0.4 nM	60 ± 20 nM	40 ± 10 nM				COc1ncccc1CN[C@@H]1C[C@H]1c1ccccc1 (racemic) [1 a, trans‐N‐((2‐Methoxypyridin‐3‐yl) methyl)‐2‐phenylcyclopropan‐1‐amine, reference compound]	no cytotoxic effect	no cytotoxic effect					EC50 ([5]; read-out: colony formation EC50): 68 ± 12 nM
17600 nM	15300 nM	45500 ± 3200 nM	32400 ± 1700 nM				COc1ncccc1CN[C@H]1[C@@H](C)[C@@H]1c1ccccc1 (relative stereo) [2 a, (1S*,2S*,3R*)‐N‐((2‐Methoxypyridin‐3‐yl) methyl)‐2‐methyl‐3‐phenylcyclo propan‐1‐amine]	no cytotoxic effect	no cytotoxic effect	1±1	1±1			THP1‐NTR^+ CD86^+ cells ([2]; at 10 μM): 34%; LSD1 inhibition (in words) [7]: lack inhibitory activity on LSD1 in the low micromolar range; also recorded: inactive on LSD1 below 10 μM
							N#Cc1nc2ccc(OCc3ccc([N+](=O)[O-])s3)cc2s1 [compound 4, 6‐((5‐Nitrothiophen‐2‐yl)methoxy)benzo[d]thiazole‐2‐carbonitrile]					no activation	converted to luciferin	
							CN(CCN(C)C(=O)Oc1ccc2nc(C#N)sc2c1)C(=O)OCc1ccc([N+](=O)[O-])s1 [compound 5, 2‐Cyanobenzo[d]thiazol‐6‐yl ((5‐nitrothiophen‐2‐yl)methyl) ethane‐1,2‐diylbis(methyl carbamate)]					no activation	converted to luciferin	factor by which conversion exceeds that of probe 4 [10]: at least 5
				376 ± 17 nM	4400 ± 700 nM	330 ± 70 nM	(1‐Methyl‐2‐nitro‐1H‐imidazol‐5‐yl)methyl((2‐methoxypyridin‐3‐yl)methyl) ((1S*,2R*)‐2‐phenylcyclopropyl)carbamate [1 f]		cytotoxic effects	66±8	14±4			% conversion to 1a (fragmentation) ([11]; HPLC of Fmoc derivative 3 after NTR reaction, Figure 3C): 59.3%; factor of prodrug fragmentation relative to 4-nitrobenzyl 1 b ([11]; calculated from fragmentation data, Figure 3D): 17 x; bystander effect in the CFU assay [12]: no bystander effect; EC50 ([2]; FACS): 5.7 ± 0.4 nM; effect on colony formation in THP1^wt (in words) [5]: no effect in THP1^wt up to 2 μM
				> 50000 nM	> 50000 nM	900 ± 200 nM	(1‐Methyl‐2‐nitro‐1H‐imidazol‐5‐yl)methyl((2‐methoxypyridin‐3‐yl)methyl) ((1S*,2S*,3R*)‐2‐methyl‐3‐phenylcyclopropyl)carbamate [2 f]		cytotoxicity		>58±13			
